In patent US20260207626A1, “SYNTHETIC TRITERPENOIDS AND COMPOSITIONS THEREOF IN WEIGHT MANAGEMENT, SKELETAL MUSCLE FUNCTION, AND APPETITE SUPPRESSION” (The Board of Regents of the University of Texas System, priority 2022, published 2026):
“Also recorded” adds a separate entry of the source.

Key:
L6-GLUT4myc myotubes = experiment: Sulforhodamine B (SRB) cell viability assay; format: cell-based, rat; conditions: 500 nM CDDO-EA, 24 hours
Protocol: Sulforhodamine B (SRB) cell viability assay: L6-GLUT4myc myoblasts (4000 cells/well) were seeded on a 96-well plate and differentiated into myotubes with differentiation medium for 7 days. Myotubes were then treated with doubling concentrations of CDDO-EA for 6 or 24 h. After treatment, myotubes were fixed in 10% cold trichloroacetic acid (TCA) (Sigma Aldrich), for 1 h in 4° C., followed by three washings with water. The plate was then dried, and the cells were dyed with 100 μL/well of 0.057% SRB (Sigma Aldrich) in 1% acetic acid for 30 min in room temperature. The plate was washed with 1% acetic acid five times, dried, and 200 μL/well of 10 mM unbuffered tris-base solution were added to dissolve the bound SRB. The plate was shaken for 1 h and then read on SpectraMax at 560 nm. Results were normalized to values for non-treated cells.

[1] = Energy expenditure (Promethion Metabolic Analyzer) in mice fed HFD with or without CDDO-EA, LFD or HFD pair-fed; format: in vivo, C57BL/6J mice; conditions: HFD + CDDO-EA (0.04%), days 3-9
Protocol: FIG. 22A and FIG. 22B. […] FIG. 22A. EE was measured 289 times in a 24-hour cycle at each day from 3-9 days of the experimental feeding. FIG. 22B. Average EE for days 3-9 of experimental feeding. C57BL/6J mice were fed a HFD with or without incorporation of CDDO-EA (diet containing 0.04% CDDO-EA) or LFD or HFD pair-fed for 6 weeks (n=5).
C57BL/6J mice (6-8 weeks old, male, strain #000664, The Jackson Laboratory) were divided into four (4) groups (i)-(iv)): (i) ad libitum Low fat caloric content (LFD-10% of total calories from fat caloric content, #TD.08806, Envigo), (ii) ad libitum HFD (60% of total calories from fat caloric content, #TD.06414, Envigo), (iii) HFD+CDDO-EA (diet containing 0.04% CDDO-EA), and (iv) HFD pair-fed to food intake of mice fed HFD+CDDO-EA. The study was for 6 weeks (42 days) (performed at Vanderbilt Metabolic Mouse Phenotyping Center (VMMPC)). Mice were singly housed in a Promethion Metabolic Analyzer and were monitored continuously for 7 days to assess feeding and EE.

IκB-α (Ser32) = experiment: Western blot of LPS-induced IκB-α phosphorylation in L6-GLUT4myc myotubes; format: cell-based, rat; conditions: 500 nM CDDO-EA 1 hr then 100 ng/ml LPS 1 hr
Source text: To examine the anti-inflammatory properties of CDDO-EA in skeletal muscle cells, CDDO-EA was examined for its effect on nuclear factor-kappa B (NF-κB) activity in L6-GLUT4myc muscle cells, in the context of LPS-mediated inflammatory responses in L6-GLUT4myc muscle cells. All experiments were independently repeated one to four times and done in duplicate or triplicate, and data were statistically analyzed by One-Way ANOVA or unpaired t-test, two tailed.
Cells were studied with vehicle alone [0.125% dimethyl sulfoxide (DMSO)] and LPS with and without CDDO-EA. […]
Western blotting and subcellular fractionation: L6-GLUT4myc myoblasts (4×10^4 cells/ml, 2 ml/well) were seeded onto 6-well dishes and differentiated with differentiation medium for 7 days. […] Protein concentrations were determined using the Pierce BCA Protein Assay (Thermo Fisher Scientific), and equal amounts of protein were separated by electrophoresis and subsequently transferred to nitrocellulose membranes. Membranes were analyzed using the following antibodies from Cell Signaling Technology: phosphorylated NF-κB (Ser536) (93 H1, cat #3033,1:1000), phosphorylated IKB-α (Ser32) (14D4, cat #2859,1:1000), IKB-α (44D4, cat #4812, 1:1000), phosphorylated p38 (Thr180/Tyr182) (cat #9211, 1:1000), p38 (cat #9212, 1:1000). […] Bands were quantitated using ImageQuant (GE Healthcare). […]

GLUT4 = experiment: GLUT4myc translocation by immunofluorescence in L6-GLUT4myc myotubes; format: cell-based, rat
Protocol: Immunofluorescence and confocal microscopy were employed to visualize the localization of c-myc epitope-tagged GLUT4 in L6-GLUT4myc myotubes treated with CDDO-EA for 1 h. L6-GLUT4myc myotubes were also treated with insulin alone for 15 min as a positive control.
To examine the properties of CDDO-EA in regulating glucose metabolism in the skeletal muscle, the present study examined whether CDDO-EA induces translocation of GLUT4 to the cell surface (FIG. 16A). Immunofluorescence and confocal microscopy were used to visualize the localization of c-myc epitope-tagged GLUT4 in L6-GLUT4myc cells.
Immunofluorescence microscopy: L6-GLUT4myc myoblasts (4×10^4 cells/ml, 0.2 ml/well) were plated onto Nunc Lab-TekII 8-chamber slides (Thermo Fisher Scientific) and differentiated for 7 days. Myotubes were pre-treated with CDDO-EA 500 nM for 1 h followed by LPS 100 ng/ml (E. coli O111: B4, Sigma Aldrich) treatment for 1 h. After treatment, myotubes were fixed, permeabilized, and stained with anti-NF-κB p65 primary antibody (cat #sc-372, 1:100, Santa Cruz Biotechnology) and a goat anti-rabbit secondary antibody conjugated with Alexa Fluor® 488 (cat #A32731, 1:500, Invitrogen) as previously described. For GLUT4myc cell membrane staining, myotubes were pre-treated with CDDO-EA 500 nM for 1 h followed by LPS 100 ng/ml (E. coli 0111: B4, Sigma Aldrich) treatment for 1 h. Insulin 100 nM (cat #19278, Sigma Aldrich) treatment was for 15 min. After CDDO-EA, LPS, and insulin treatment, myotubes were fixed without permeabilization and stained with anti-c-myc primary antibody (cat #C3956, 1:100, Sigma Aldrich) and a goat anti-rabbit secondary antibody conjugated with Alexa Fluor® 488 (cat #A32731, 1:500, Invitrogen) as previously described.

CCNC(=O)[C@]12CCC(C)(C)C[C@H]1C1C(=O)C=C3[C@@]4(C)C=C(C#N)C(=O)C(C)(C)[C@@H]4CC[C@@]3(C)[C@]1(C)CC2 (stereo partly drawn) [CDDO-EA, (4aS,6aR,6bS,8aR,12aS,14bS)-11-cyano-N-ethyl-2,2,6a,6b,9,9,12a-heptamethyl-10,14-dioxo-1,3,4,5,6,6a,6b, 7,8,8a,9,10,12a, 14,14a, 14b-hexadecahydropicene-4a (2H)-carboxamide]
cell viability (L6-GLUT4myc myotubes): 62% | energy expenditure (EE) [1]: does not affect EE; also recorded: does not affect energy expenditure | LPS-induced IκB-α phosphorylation (IκB-α (Ser32)): decreased LPS-induced NF-κB and nuclear factor of kappa light polypeptide gene enhancer in B-cells inhibitor-alpha (IκB) phosphorylation; also recorded: inhibited the LPS-induced phosphorylation of IκB-α; also recorded: inhibits lipopolysaccharide (LPS)-induced NF-κB and Inhibitory kappa B alpha (IκB-α) phosphorylation | CDDO-EA-stimulated GLUT4myc translocation in presence of LPS (GLUT4; 500 nM CDDO-EA 1 h then 100 ng/ml LPS 1 h): did not inhibit CDDO-EA-stimulated GLUT4myc translocation; also recorded: did not prevent CDDO-EA-stimulated GLUT4myc translocation to the cell surface | GLUT4myc translocation to the cell surface (GLUT4; CDDO-EA 500 nM 1 h, insulin 100 nM 15 min): induced GLUT4myc translocation to the cell surface; also recorded: activates GLUT4 translocation to cell membrane and p38 phosphorylation
